Data taken from the NIST ThermoML archive (doi:10.1021/je200352g).
± gives the expanded uncertainty stated by the source.

Details: 298 K; 101.33 kPa; Crystal; X-ray diffraction

Row | mass density [kg/m3] | Compound
1 | 1268 ± 2 | CCCCCCCCC[NH3+].O=P([O-])(O)O [1-nonylammonium dihydrogen phosphate]
2 | 1282 ± 2 | CCCCCCCC[NH3+].O=P([O-])(O)O [1-octanaminium dihydrogen phosphate]
